Reference: US7357916B2, “Method for creating a uniform vascular wound in zebrafish or zebrafish larva” (priority 2002, dated 2008)
Like-named read-outs stand apart in the source and are kept apart here.

Experiments:
zebrafish larvae [1] = experiment: Vascular occlusion with phenylhydrazine, time to occlusion (TTO); format: in vivo
Protocol: (§1) For screening studies, larvae at three to five days postfertilization (dpf) were placed in 500 μL of water and an equal volume of phenylhydrazine (40 mmol/L phenylhydrazine HCl (PHZ), Sigma, MO) or FeCl3 (40 mmol/L) solution was added. Each larva, along with 9 μL of solution, was placed in a 3 mm×1 mm×3 mm well of an acrylic viewing chamber (narrow wells limited the motion of larvae for better viewing). For recording purposes, larvae were also immobilized in agarose, as described below, and 100 μl of either FeCl3 or PHZ were layered on top of the agarose block. Vascular occlusion was recorded using an inverted Olympus microscope equipped with a Javelin MOS solid-state camera (Japan) connected to a VHS recorder.

erythrocytes = experiment: Annexin V binding, flow cytometry of blood cells from treated adult zebrafish; format: in vivo; conditions: 5 mmol/L for five minutes, FITC annexin V
Protocol: Adult zebrafish were placed in a 500 mL solution of phenylhydrazine (5 mmol/L phenylhydrazine HCl, pH 7.2 in 20 mmol/L Tris) or FeCl3 (5 mmol/L) for five minutes and then rinsed with de-ionized water. Two μL of blood were collected, as described (Jagadeeswaran et al., 2000a, specifically incorporated herein by reference), from control or treated zebrafish and blood cells were isolated by centrifugation of the blood sample at 800 g for two minutes, followed by removal of the supernatant. The cell pellet was washed once with 200 μL of PBS, centrifuged and resuspended in 200 μL of binding buffer (ApoAlert; Clontech, Calif.) followed by addition of 5 μL of FITC conjugated Annexin-V (Clontech, Calif.). Samples were incubated for ten minutes in dark at 25° C. and visualized ulsing a 20× UplanApo objective on an Olympus FV500 confocal microscope or processed by flow cytometry (Gregory & Jagadeeswaran, 2002).

zebrafish larvae [2] = system: zebrafish larvae
Protocol: as §1

zebrafish larvae [3] = experiment: Vascular occlusion by laser irradiation, time to occlusion (TTO); format: in vivo; conditions: normal TTO 17±5.0 seconds; for Time to occlusion (TTO), laser irradiation assays: embryos microinjected with morpholino, screened at 3 dpf
Protocol: For laser irradiation treatment, 1 to 5 larvae (3 mm) were placed in 250 μL of water and anesthetized with 10 μl of Tricaine solution (300 μmol/L, Sigma, MO). 250 μL of 1% low-melting agarose solution (at 40° C.) were added to the anesthetized larvae and each larva, along with approximately 100 μL of agarose solution, was positioned inside a viewing well that was formed by placing a plastic ring on a glass microscope slide. Before treatment, water was allowed to soak into the agarose blocks to wash out the anesthetic. Pulsed nitrogen laser light pumped through coumarin 440 dye (445 nm) (MicroPoint Laser system, Photonic Instruments Inc, IL) at seven pulses/second was delivered to larvae for five seconds through a 10× objective on a Nikon Optiphot microscope. The progress of occlusion was recorded using a Nikon CoolPix 995 CCD camera.
Larvae at 2 and 3 dpf were treated with warfarin as described (Hanumanthaiah et al., 2001, specifically incorporated herein by reference) for 24 hours. Larvae were rinsed in water and tested with either chemical or laser methods of vessel injury. Morpholinos (Discovery Genomics Inc.) were designed against 5′-UTR around the translational start site of zebrafish factor VII (Sheehan et al., 2001, specifically incorporated herein by reference or factor VIIi (Hanumanthaiah et al., 2002, specifically incorporated herein by reference). Sequences were as follows:
For each morpholino a working solution (2 mg/mL) was prepared as previously described (Nasevicius & Ekker, 2000, specifically incorporated herein by reference). Embryos were generated by in vitro fertilization as described (Westerfield, 2000, specifically incorporated herein by reference) and 9 nL of either morpholino solution were injected into the yolk of embryos at the single to four cell stages. Control embryos were microinjected with an equal volume of PBS. Embryos were maintained at 28° C. and screened at 3 dpf.

[4] = larvae treated with warfarin for 24 hours

Which “Time to occlusion (TTO) induced by the agent, mean±standard deviation” value (zebrafish larvae [1]; wild type larvae at four dpf, n=500) does the source give for `Cl.NNc1ccccc1` [phenylhydrazine, phenylhydrazine HCl] here?
Its value is 10 ± 2.5 min.

What about the “Erythrocytes exhibiting externalization of PS” value (erythrocytes) of the same compound?
The value was “approximately 18%”.

How did the “Effect on TTO in phenylhydrazine induced vascular occlusion” value (zebrafish larvae [1]; [4]) turn out when `CC(=O)CC(c1ccccc1)c1c(O)c2ccccc2oc1=O` (centres unmarked) [Warfarin, warfarin] was run?
Its value is “did not affect TTO”.

What about the “Time to occlusion (TTO), FeCl3 injury” value (zebrafish larvae [2]; larvae treated with warfarin for 24 hours, normal TTO 6±2 minutes) of the same compound?
The value was over 10 min.

What about the “Time to occlusion (TTO), laser irradiation injury” value (zebrafish larvae [3]; [4]) of the same compound?
Its value is over 1 min.

With “5′-CAAGCAGCAGACTC ATATTTACTGC-3′ (SEQ ID NO:1) (antisense CAAGCAGCAGACTCATATTTACTGC; all phosphorodiamidate morpholino (PMO)) [FVIIas]” as the compound, how does the “Time to occlusion (TTO), laser irradiation assays” value (zebrafish larvae [3]) read?
Its value is 55 ± 9 s.

`[Cl][Fe]([Cl])[Cl]` [FeCl3, ferric chloride] was tested. Which “Time to occlusion (TTO) induced by the agent, mean±standard deviation” value (zebrafish larvae [2]; wild type larvae at three dpf, n=1000) did it give?
The value was 6 ± 2 min.

“5′-GTCACTGACCTCAGCCTGTTCACAA-3′ (SEQ ID NO:2) (morpholino, further chemistry not given here) [FVIIias]” was tested. Which “Time to occlusion (TTO), laser irradiation assays” value (zebrafish larvae [3]) did it give?
Its value is 9 ± 3 s.
